From US12310947B2, “Methods and compositions for unsilencing imprinted genes” (priority 2019, dated 2025)
“Also recorded” adds a separate entry of the source.

Key:
Snord116 = assay: Quantitative RT-PCR of Snord116 mRNA in cultured cortical neurons; type: cell-based, mouse; details: qPCR normalized to β-actin, after drug treatment
Experimental: (§1) Cell culture and drug treatment: Primary cortical neurons were isolated and cultured by following established protocol. Briefly, cortical neurons were isolated from embryos (E13.5-15.5) carrying paternal Ube3a-YFP (Ube3a^m+/pYFP) or maternal deletion of Ube3a (Ube3a^m−/p+). Isolated cortical neurons were plated onto 384-well plates coated with poly-D-lysine (2.0×10^4 cell/well) for high-content imaging analysis or 6-well plates coated with poly-D-lysine (1.0×10^6 cells/well) for molecular and biochemical assays (western blot analysis, quantitative RT-PCR, and shRNA knockdown). Cultured neurons were maintained for 7 days, replacing medium every 3-4 days. On day 7 (DIV 7), the indicated compounds were added at 0.3-1 μM to neurons for 72 hr to unsilence paternal Ube3a or Ube3a-YFP.
(§2) Quantitative real-time PCR and topoisomerase-based DNA relaxation assay: Quantitative real-time PCR (qPCR) was performed using previously reported protocols. Briefly, total RNA was extracted from cultured cortical neurons carrying Ube3a^m+/pYFP after drug treatment using Direct-zol RNA kit (Zymo Research). cDNA pool was synthesized using 2 μg of total RNA and qScript cDNA Supermix (Quantabio). qPCR was performed using SsoAdvanced Universal SYBR green Supermix (Bio-rad). […] Relative quantity (RQ) was calculated after normalized ΔΔCt was calculated. […]

Ube3a-YFP mRNA = assay: Quantitative RT-PCR of Ube3a-YFP mRNA in cultured cortical neurons; type: cell-based, mouse; details: qPCR normalized to β-actin, after drug treatment
Experimental: as §1, §2

paternal UBE3A = assay: Western blot of UBE3A protein (anti-Ube3a) in AS model (Ube3a^m-/p+) cortical neurons; type: cell-based, mouse; details: 72 hr; Topotecan 0.3 μM, PHA533533 1.0 μM, Compound X 0.5 μM, Compound Y 0.5 μM; versus DMSO-treated WT neurons
Experimental: as §1
shRNA knockdown and western blot analysis: Lentiviral shRNAs of Top1 (TRCN0000011884), CDK2 (TRCN0000023146), and CDK5 (TRCN0000009520) were generated using previously described techniques. Cultured cortical neurons were infected at DIV 3 and virus was removed the next day (DIV 4). […] Following secondary antibody incubation, the membranes were rinsed (4-5 times) with 1×TBS-T at room temperature for 1 hr and ECL (Bio-Rad) was used to visualize detected proteins using an Amersham Imager 600 (AI600, GE Life Sciences).

Ube3a-ATS = assay: Quantitative RT-PCR of Ube3a-ATS mRNA in cultured cortical neurons; type: cell-based, mouse; details: qPCR normalized to β-actin, after drug treatment
Experimental: as §1, §2

paternal Ube3a-YFP [1] = assay: Western blot of UBE3A-YFP protein (anti-GFP) in Ube3a^m+/pYFP cortical neurons; type: cell-based, mouse; details: Topotecan 0.3 μM, PHA533533 1.0 μM; for unsilencing of paternal Ube3a-YFP with CDK2 knocked down: CDK2 shRNA knockdown; for unsilencing of paternal Ube3a-YFP with CDK5 knocked down: CDK5 shRNA knockdown; for UBE3A-YFP protein from the paternal allele (western blot): 72 hr, Compound X 0.5 μM, Compound Y 0.5 μM, EPZ5676 3 μM, EPZ5676 1 μM with P5-A4 1 μM, analogues 1 μM
Experimental: Cultured cortical neurons were infected at DIV 3 and virus was removed the next day (DIV 4). Neurons were further cultured and treated at DIV 10 with vehicle (0.1% DMSO) or the indicated compounds. To perform western blot analysis, the cultured neurons from 6-well plates were harvested and total protein was extracted with protein extraction buffer 72 hr after drug treatment, Bradford assays were performed to measure protein concentration, and 30 μg of total protein was loaded for Bis-polyacrylamide gel electrophoresis (Bio-Rad). Electrophoresed proteins were transferred to nitrocellulose membrane (0.45 μm, Bio-Rad). Membranes were blocked with 5% non-fat milk in 1×TBS-T at room temperature for 30 min followed by overnight 4° C. incubation with primary antibodies [rabbit anti-GFP (1:1000, Novus Biologicals), rabbit anti-Ube3a (1:1000, Bethyl Lab), rabbit anti-H3K79Me2 (1:1000, Abcam), rabbit anti-H3K79Me3 (1:1000, Abcam), and mouse anti-β-actin (1:5000, Sigma)]. The next day, the immunoblot membranes were rinsed with 1×TBS-T three times and incubated with HPR-conjugated secondary antibodies for 1 hr at room temperature (goat anti-rabbit @ 1:1000 or goat anti-mouse @ 1:1000, Vector Labs). Following secondary antibody incubation, the membranes were rinsed (4-5 times) with 1×TBS-T at room temperature for 1 hr and ECL (Bio-Rad) was used to visualize detected proteins using an Amersham Imager 600 (AI600, GE Life Sciences).

paternal Ube3a-YFP [2] = assay: High-content imaging of paternal UBE3A-YFP in cultured cortical neurons (GFP antibody-enhanced fluorescence); type: cell-based, mouse; details: for percent of neurons expressing UBE3A-YFP above threshold: cultured mouse cortical neurons, 72 hr treatment, n=4, DMSO control 0.03±0.004%; for unsilencing of paternal Ube3a-YFP by imaging, in words: library screen at 1 μM or dose response, 72 hr
Experimental: as §1
Fluorescence immunocytochemistry and high content imaging analysis: Fluorescent immunocytochemistry and high content imaging analysis were performed by following previously described protocols with slight modifications. After 72 hr drug treatment, the neurons were fixed with 4% paraformaldehyde in 1×PBS at room temperature for 10 min. After brief washing with 1×PBS three times, neurons were permeabilized with 1% Triton-X 100 in 1×PBS at room temperature for 15 min, followed by blocking with 5% normal goat serum in 0.1% Triton-X 100 in 1×PBS at room temperature. 60 min after blocking, neurons were incubated with primary antibody, rabbit anti-GFP (1:1000, Novus Biologicals), at 4° C. overnight. Neurons were then briefly washed with 1×PBS followed by incubation with secondary antibody, goat anti-rabbit Alexa Fluor 488 (1:500, Thermo Fisher/Invitrogen) and Hoechst 33342 (Thermo Fisher), at room temperature for 60 min. Following secondary antibody incubation, neurons were washed with 1×PBS and fluorescent images were acquired using a BD Pathway 855 bioimager. All acquired images were analyzed by CellProfiler.
Fluorescence immunocytochemistry and high content imaging analysis: After 72-hour drug treatment, the neurons were fixed with 4% paraformaldehyde in phosphate-buffered saline (PBS) at room temperature for 10 min. After brief washing with PBS three times, neurons were permeabilized with 1% Triton-X 100 in PBS at room temperature for 10 min, followed by blocking with 5% normal goat serum in 0.1% Triton-X 100 in 1×PBS at room temperature. 30 min after blocking, neurons were incubated with primary antibodies rabbit anti-GFP (1:1000, NB 600308, Novus Biologicals) and mouse anti-NeuN (1:500, MAB 377, Millipore) at 4° C. overnight. Neurons were then briefly washed with 1×PBS followed by incubation with secondary antibodies goat anti-rabbit Alexa Fluor 488 (1:500, A11008, Thermo Fisher/Invitrogen) and anti-mouse Alexa Fluor 568 (1:500, A21124, ThermoFisher/Invitrogen) together with DAPI (4′,6-diamidino-2-phenylindole) at room temperature for 60 min. Following secondary antibody incubation, neurons were washed with 1×PBS and fluorescent images were acquired using Nikon Ti2 eclipse fluorescent microscope (Nikon Instruments Inc., Melville, NY, USA). Antibody-enhanced UBE3A-YFP fluorescence intensities were determined from DAPI and NeuN double-positive individual neurons in drug-treated wells and normalized to neurons in untreated wells. All acquired images were analyzed by Nikon NIS-Elements software (Nikon Instruments Inc., Melville, NY, USA). Sigmoidal curve fitting for the dose response analysis was performed using GraphPad Prism software version 8.0 (GraphPad Software, La Jolla, CA, USA). The calculated EC50 values (potencies) and Y value top plateau (estimated efficacies) enables comparative analyses of the relative potency and efficacy of the identified compounds.

[3] = system: cultured mouse cortical neurons; type: cell-based
Experimental: Cytotoxicity test: Cytotoxicity of drugs was tested in cultured mouse cortical neurons in vitro. The manufacturer's protocol was followed to measure luminescence proportional to the number of dead cells using Cyto Tox-Glo assay (Promega). 72 hr after drug treatment, AAF-Glo substrates were directed added to the drug-treated (or 0.1% DMSO vehicle-treated) cortical neurons and incubated them at room temperature for 15 min. Luminescence produced by dead-cell protease activity was then measured.

Snrpn = assay: Quantitative RT-PCR of Snrpn mRNA in cultured cortical neurons; type: cell-based, mouse; details: qPCR normalized to β-actin, after drug treatment
Experimental: as §1, §2

DOT1L = assay: Western blot of H3K79 methylation (anti-H3K79me2, anti-H3K79me3) in cortical neurons; type: cell-based, mouse; details: PHA533533 1.0 μM, Compound X 0.5 μM, EPZ5676 3 μM
Text: shRNA knockdown and western blot analysis: Lentiviral shRNAs of Top1 (TRCN0000011884), CDK2 (TRCN0000023146), and CDK5 (TRCN0000009520) were generated using previously described techniques. Cultured cortical neurons were infected at DIV 3 and virus was removed the next day (DIV 4). Neurons were further cultured and treated at DIV 10 with vehicle (0.1% DMSO) or the indicated compounds. To perform western blot analysis, the cultured neurons from 6-well plates were harvested and total protein was extracted with protein extraction buffer 72 hr after drug treatment, Bradford assays were performed to measure protein concentration, and 30 μg of total protein was loaded for Bis-polyacrylamide gel electrophoresis (Bio-Rad). Electrophoresed proteins were transferred to nitrocellulose membrane (0.45 μm, Bio-Rad). Membranes were blocked with 5% non-fat milk in 1×TBS-T at room temperature for 30 min followed by overnight 4° C. incubation with primary antibodies [rabbit anti-GFP (1:1000, Novus Biologicals), rabbit anti-Ube3a (1:1000, Bethyl Lab), rabbit anti-H3K79Me2 (1:1000, Abcam), rabbit anti-H3K79Me3 (1:1000, Abcam), and mouse anti-β-actin (1:5000, Sigma)]. […] Following secondary antibody incubation, the membranes were rinsed (4-5 times) with 1×TBS-T at room temperature for 1 hr and ECL (Bio-Rad) was used to visualize detected proteins using an Amersham Imager 600 (AI600, GE Life Sciences).

Top2a = molecular target: T1, Top2a (Homo sapiens, UniProt P11388); assay: Topoisomerase-based DNA relaxation assay, Top2a (kDNA decatenation); type: biochemical; details: catenated versus decatenated kDNA on agarose gel
T1 construct: purchased TopoGEN
Experimental: Quantitative real-time PCR and topoisomerase-based DNA relaxation assay: Quantitative real-time PCR (qPCR) was performed using previously reported protocols. Briefly, total RNA was extracted from cultured cortical neurons carrying Ube3a^m+/pYFP after drug treatment using Direct-zol RNA kit (Zymo Research). cDNA pool was synthesized using 2 μg of total RNA and qScript cDNA Supermix (Quantabio). qPCR was performed using SsoAdvanced Universal SYBR green Supermix (Bio-rad). The primer sets were β-actin (forward, 5′-[…]-3′, SEQ ID NO:1; reverse, 5′-[…]-3, SEQ ID NO:2), YFP (forward, 5′-[…]-3′, SEQ ID NO:3; reverse, 5′-[…]-3′, SEQ ID NO:4), Ube3a-ATS (forward, 5′-[…]-3′, SEQ ID NO:5; reverse, 5′-[…]-3′, SEQ ID NO:6), Snrpn (forward, 5′-[…]-3′, SEQ ID NO:7; reverse, 5′-[…]-3′, SEQ ID NO:8), and Snord116 (forward, 5′-[…]-3′, SEQ ID NO:9; reverse, 5′-[…]-3′, SEQ ID NO:10). qPCR was performed using QuantStudio thermocycler (Thermo Fisher) with the following conditions: 95° C. for 5 min and followed by 40 cycles of 95° C. 10 sec, 60° C. 1 min. Relative quantity (RQ) was calculated after normalized ΔΔCt was calculated. Topoisomerase (Top)-based DNA relaxation assays were performed to test whether the drugs inhibited Top1, Top2a, and Top2b. Top1 and Top2a assay kits were purchased from TopoGEN, and Top2b enzyme was purchased from Inspiralis. All Top-based assays followed manufacturer protocols.

T1 sequence (P11388 whole entry): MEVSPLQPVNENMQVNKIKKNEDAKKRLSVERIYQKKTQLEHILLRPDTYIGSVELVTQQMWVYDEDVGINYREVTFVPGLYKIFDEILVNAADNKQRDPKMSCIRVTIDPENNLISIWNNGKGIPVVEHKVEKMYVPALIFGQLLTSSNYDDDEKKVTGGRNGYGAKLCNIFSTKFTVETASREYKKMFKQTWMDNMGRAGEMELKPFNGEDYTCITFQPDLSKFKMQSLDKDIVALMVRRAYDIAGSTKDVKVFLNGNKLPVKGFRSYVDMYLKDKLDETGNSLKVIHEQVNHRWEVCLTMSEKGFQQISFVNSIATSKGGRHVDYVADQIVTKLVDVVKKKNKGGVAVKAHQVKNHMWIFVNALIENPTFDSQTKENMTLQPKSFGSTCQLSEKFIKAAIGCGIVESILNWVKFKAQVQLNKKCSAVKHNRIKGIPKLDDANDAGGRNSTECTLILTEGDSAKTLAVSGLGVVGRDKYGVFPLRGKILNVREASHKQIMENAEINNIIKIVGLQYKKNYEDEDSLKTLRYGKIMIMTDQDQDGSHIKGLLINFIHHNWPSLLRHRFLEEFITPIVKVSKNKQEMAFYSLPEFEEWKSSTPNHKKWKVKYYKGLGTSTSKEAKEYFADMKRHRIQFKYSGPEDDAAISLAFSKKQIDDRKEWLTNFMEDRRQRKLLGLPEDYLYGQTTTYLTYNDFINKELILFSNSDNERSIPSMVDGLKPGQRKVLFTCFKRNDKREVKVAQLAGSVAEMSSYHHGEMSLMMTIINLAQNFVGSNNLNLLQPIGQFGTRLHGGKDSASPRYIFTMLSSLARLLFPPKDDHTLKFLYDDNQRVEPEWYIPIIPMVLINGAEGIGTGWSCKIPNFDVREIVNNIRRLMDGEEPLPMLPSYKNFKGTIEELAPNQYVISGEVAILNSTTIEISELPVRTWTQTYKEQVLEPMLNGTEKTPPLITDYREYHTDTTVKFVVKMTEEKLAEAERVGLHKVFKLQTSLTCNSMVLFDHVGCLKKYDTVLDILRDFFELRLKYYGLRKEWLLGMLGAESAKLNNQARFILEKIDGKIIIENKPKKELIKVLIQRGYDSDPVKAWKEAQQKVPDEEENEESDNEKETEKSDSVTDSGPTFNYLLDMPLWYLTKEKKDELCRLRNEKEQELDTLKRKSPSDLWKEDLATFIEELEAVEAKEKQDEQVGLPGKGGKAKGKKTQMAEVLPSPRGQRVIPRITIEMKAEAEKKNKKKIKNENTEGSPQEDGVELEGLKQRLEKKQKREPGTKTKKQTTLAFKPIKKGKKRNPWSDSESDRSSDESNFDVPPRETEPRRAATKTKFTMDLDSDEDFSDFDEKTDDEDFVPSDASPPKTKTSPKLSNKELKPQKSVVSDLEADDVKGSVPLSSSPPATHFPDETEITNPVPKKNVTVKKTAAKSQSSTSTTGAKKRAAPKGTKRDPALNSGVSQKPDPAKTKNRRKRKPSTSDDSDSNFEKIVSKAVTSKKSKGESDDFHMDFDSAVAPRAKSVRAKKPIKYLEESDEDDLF

| Molecule | Snord116 mRNA (Snord116) | mRNA of Ube3a-YFP (Ube3a-YFP mRNA) | UBE3A protein from the paternal allele in AS model neurons (western blot) (paternal UBE3A) | Ube3a-ATS mRNA (Ube3a-ATS) | unsilencing of paternal Ube3a-YFP with CDK2 knocked down (paternal Ube3a-YFP [1]) | unsilencing of paternal Ube3a-YFP with CDK5 knocked down (paternal Ube3a-YFP [1]) | percent of neurons expressing UBE3A-YFP above threshold (paternal Ube3a-YFP [2]) [%] | unsilencing of paternal Ube3a-YFP by imaging, in words (paternal Ube3a-YFP [2]) | Snrpn mRNA (Snrpn) | UBE3A-YFP protein from the paternal allele (western blot) (paternal Ube3a-YFP [1]) | methylation level on histone H3 lysine 79 (H3K79) (DOT1L) | inhibition of Top2a (Top2a) | further results |
| --- | --- | --- | --- | --- | --- | --- | --- | --- | --- | --- | --- | --- | --- |
| CC[C@@]1(O)C(=O)OCc2c1cc1n(c2=O)Cc2cc3c(CN(C)C)c(O)ccc3nc2-1 [topotecan, reference compound] | decreased | upregulated | unsilenced paternal UBE3A at levels that approached that of UBE3A levels in DMSO-treated neurons from WT mice | significantly decreased | did not unsilence paternal Ube3a-YFP unless neurons were treated | further enhanced | 37.3±3.7 | unsilenced paternal UBE3A-YFP | decreased | – | – | – | unsilencing of paternal Ube3a-YFP with Top1 knocked down (paternal Ube3a-YFP [1]; Top1 shRNA knockdown): occlude unsilencing; also recorded: occluded the ability; LC50 / cytotoxicity compared to topotecan, in words [3]: comparable LC50 |
| O=C(Cc1ccc2ccccc2c1)Nc1cc(C2CC2)[nH]n1 [PNU0292137] | – | – | – | – | – | – | – | could not produce appreciable increases | – | – | – | – | – |
| C[C@H](C(=O)Nc1cc(C2CC2)[nH]n1)c1ccc(N2CCOC2=O)cc1 [Compound P5-A4, (S)—N-(5-cyclopropyl-1H-pyrazol-3-yl)-2-(4-(2-oxooxazolidin-3-yl)phenyl)propenamide] | – | – | – | – | – | – | – | – | – | did not appreciably unsilence paternal Ube3a-YFP | – | – | – |
| CC(C)N(C[C@H]1O[C@@H](n2cnc3c(N)ncnc32)[C@H](O)[C@@H]1O)[C@H]1C[C@@H](CCc2nc3cc(C(C)(C)C)ccc3[nH]2)C1 [EPZ5676, reference compound] | – | – | – | – | – | – | – | – | – | did not appreciably unsilence paternal Ube3a-YFP | reduced methylation level on histone H3 lysine 79 (H3K79) | – | – |
| ICRF-193 [reference compound] | – | – | – | – | – | – | – | – | – | – | – | inhibits the relaxation of catenated kDNA | – |
| C[C@H](C(=O)Nc1cc(C2CC2)[nH]n1)c1ccc(N2CCCC2=O)cc1 [PHA533533] | decreased | upregulated | unsilenced paternal UBE3A at levels that approached that of UBE3A levels in DMSO-treated neurons from WT mice | significantly decreased; also recorded: downregulates Ube3a-ATS | did not unsilence paternal Ube3a-YFP unless neurons were treated | further enhanced | 63.7±14.3 | effectively unsilenced paternal Ube3a-YFP; also recorded: can unsilence paternal Ube3a-YFP | decreased | increased UBE3A-YFP protein to levels approaching that of topotecan; also recorded: can produce UBE3A-YFP | reduced methylation level on histone H3 lysine 79 (H3K79) | partially inhibited Top2a | potency (EC50) compared to topotecan, in words (paternal Ube3a-YFP [2]; dose response, normalized fluorescent intensity): slightly lower potency than topotecan |
